# Test results published in patent US8906913B2, “Azabicyclohexanes” (Panacea Biotec Limited, priority 2009, dated 2014).
# Where two headings read alike, the source gives them in different places. Marks after values point to notes of the source that are not given here.
# Legend:
# [1] = tested on: Enterococcus faecalis ATCC 29212 Vancomycin Sensitive; test: In-vitro antibacterial activity, broth microdilution MIC; type: cell-based
# Procedure: (§1) The in-vitro antibacterial activity of the compounds of the present invention (as described in Table 7) was determined by a broth microdilution following the guidelines prescribed by the Clinical and Laboratory Standards Institute (CLSI). This method is described in the CLSI Document M7-A7, Vol. 26, No. 2, “Methods for Dilution Antimicrobial Susceptibility Test for Bacteria that Grow Aerobically; Approved Standard-Seventh Edition”, which is incorporated herein by reference. Minimum Inhibitory Concentration (MIC) is defined as the minimum concentration of test compound which inhibits the growth of bacteria as visible or seen by the naked eye. This test can also be carried out by agar dilution method.
# (§2) The compounds of the present invention were tested against a panel of standard microorganisms obtained from ATCC (American type culture collection). Linezolid was used as comparator in all the tests.
# (§3) In the broth microdilution method, the compound was dissolved in dimethylsulfoxide and two fold serial dilutions were carried out in 96 well microtitre plates. The inoculum was prepared by adjusting the turbidity of actively growing broth culture and added to the wells to obtain a final bacterial count of ˜2-5×10^4 CFU/well. The microtitre plates were incubated at 35±2° C. for 16-20 h and then read visually.
# [2] = tested on: Staphylococcus aureus ATCC 33591 MRSA (Methicillin resistant); test: as above; type: cell-based
# Procedure: as §1, §2, §3
# [3] = tested on: Enterococcus faecium ATCC 700221 VRE (Vancomycin resistant E. faecium); test: as above; type: cell-based
# Procedure: as §1, §2, §3
# [4] = tested on: Staphylococcus aureus ATCC 29213 MSSA (Methicillin sensitive); test: as above; type: cell-based
# Procedure: as §1, §2, §3
# [5] = tested on: male SWISS albino mice; test: Forced Swim Test; type: in vivo; conditions: for inhibition in vivo at 32 mg/kg: Mus musculus, 0.25 h, read-out: % decrease in immobility time (dose 32 mg/kg)
# Procedure: This test was conducted according to the method of Porsolt et al. (Porsolt, R. D., et al., Behavioural despair in mice: A primary screening test for antidepressants. Arch. in Pharmacodyn. Ther., 229, pp 327-336 (1977)).
# A test compound was suspended in deionized water, unless otherwise specified, and this suspension was orally administered to male SWISS albino mice (7 to 9 week old). 15 min later, the mice were placed in a water tank having a water depth of 15 cm and a water temperature of 25±1° C. and immediately thereafter allowed to swim for 6 min. Then, a time during which the mouse was immobile (immobility time) was measured for the last 4 min.
# [6] = ATCC29212, Table 7, E. faecalis vancomycin sensitive, broth microdilution, 35±2° C., 16-20 h, read-out: MIC ATCC 29212
# [7] = Table 7, S. aureus MRSA, broth microdilution, 35±2° C., 16-20 h, read-out: MIC ATCC 33591
# [8] = Table 7, broth microdilution, 35±2° C., 16-20 h, read-out: MIC ATTC 700221
# [9] = Table 7, S. aureus MSSA, broth microdilution, 35±2° C., 16-20 h, read-out: MIC ATCC 29213
# [10] = Table 8, mice, oral, suspended in deionized water, 15 min before test
# [11] = Table 8, mice, oral, 32 mg/kg, suspended in deionized water, 15 min before test
compound,measurement,setting,value
CC(=O)NC[C@H]1CN(c2ccc(C34CC3CN(c3nc5ccccc5s3)C4)cc2)C(=O)O1 (some centres unmarked),MIC,[1]; [6],1 µg/mL
same,MIC,[2]; [7],0.5 µg/mL
same,MIC,[3]; [8],0.25 µg/mL
same,MIC,[4]; [9],1 µg/mL
COCCN1CC2CC2(c2ccc(N3CCOCC3)cc2)C1 (centres unmarked),% decrease in immobility time (dose 64 mg/kg),[5]; [10],62.4 ± 16.3%
CCN1C[C@H]2C[C@@]2(c2ccc(N3CCOCC3)cc2)C1,inhibition in vivo at 32 mg/kg,[5]; [11],87.7 ± 6%
CCN1CC2CC2(c2ccc(N3CCn4cnnc4C3)cc2)C1 (centres unmarked),% decrease in immobility time (dose 64 mg/kg),[5]; [10],89.6 ± 10.4%
COCCN1C[C@H]2C[C@@]2(c2ccc(N3CCOCC3)cc2)C1,% decrease in immobility time (dose 64 mg/kg),[5]; [10],79.2 ± 14.9%
CC1CN(c2ccc([C@]34CNC[C@H]3C4)cc2)CC(C)O1 (some centres unmarked),% decrease in immobility time (dose 64 mg/kg),[5]; [10],63.9 ± 4.8%
CCN1CC2CC2(c2cc3cc(N4CCOCC4)ccc3s2)C1 (centres unmarked),% decrease in immobility time (dose 64 mg/kg),[5]; [10],38.4 ± 2.7%
CCN1C[C@H]2C[C@@]2(c2ccc(N3CC(C)OC(C)C3)cc2)C1 (some centres unmarked),% decrease in immobility time (dose 64 mg/kg),[5]; [10],92.4 ± 7.6%
CCN1C[C@@H]2C[C@]2(c2ccc(N3CC(C)OC(C)C3)cc2)C1 (some centres unmarked),inhibition in vivo at 32 mg/kg,[5]; [11],80.9 ± 8.7%
CCN1CC2CC2(c2ccc(N3CC(C)OC(C)C3)cc2)C1 (centres unmarked),inhibition in vivo at 32 mg/kg,[5]; [11],81.6 ± 10.1%
CCN1C[C@H]2C[C@@]2(c2ccc(N3CCCC3)cc2)C1,inhibition in vivo at 32 mg/kg,[5]; [11],97.7 ± 2.3%
CCN1CC2CC2(c2ccc(N3CCC(F)C3)cc2)C1 (centres unmarked),inhibition in vivo at 32 mg/kg,[5]; [11],77.1 ± 11.2%
CCN1CC2CC2(c2ccc(N3CCC(F)CC3)cc2)C1 (centres unmarked),inhibition in vivo at 32 mg/kg,[5]; [11],62.8 ± 23.4%
CCN1C[C@H]2C[C@@]2(c2ccc(N3CCC(F)C3)cc2)C1 (some centres unmarked),inhibition in vivo at 32 mg/kg,[5]; [11],75.5 ± 12.9%
CCN1CC2CC2(c2ccc(N3CCN(c4ccccc4)CC3)cc2)C1 (centres unmarked),% decrease in immobility time (dose 64 mg/kg),[5]; [10],65.8 ± 9.9%
CCN1CC2CC2(c2ccc(N3CCOC3=O)cc2)C1 (centres unmarked),inhibition in vivo at 32 mg/kg,[5]; po,99.2 ± 0.8%
COCC1C2CNCC21c1ccc(N2CCOCC2)cc1 (centres unmarked),% decrease in immobility time (dose 64 mg/kg),"[5]; Table 8, mice, oral, vehicle 0.25% CMC",60.8 ± 20.9^z %
CCN1CC2C(COC)C2(c2ccc(N3CCOCC3)cc2)C1 (centres unmarked),% decrease in immobility time (dose 64 mg/kg),[5]; [10],58.4 ± 10.1%
CCN1CC2CC2(c2ccc(N3CCOCC3=O)cc2)C1.Cl (centres unmarked),% decrease in immobility time (dose 64 mg/kg),[5]; [10],88.7 ± 5.2%
CCN1C[C@H]2C[C@@]2(c2ccc(N3C[C@H](C)O[C@@H](C)C3)cc2)C1,inhibition in vivo at 32 mg/kg,[5]; [11],79.8 ± 10.7%
CCOCC1C2CN(CC)CC12c1ccc(N2CCCC2)cc1 (centres unmarked),inhibition in vivo at 32 mg/kg,[5]; [11],80.6 ± 13.7%
"CC(=O)NC[C@H]1CN(c2ccc(N3CCOCC3)c(F)c2)C(=O)O1 [Linezolid, reference compound]",MIC,[1]; [6],2 µg/mL
same,MIC,[2]; [7],1 µg/mL
same,MIC,[3]; [8],1 µg/mL
same,MIC,[4]; [9],2 µg/mL
CC(=O)NC[C@H]1CN(c2ccc(C34CC3CN(C(C)=O)C4)cc2)C(=O)O1 (some centres unmarked) [drawing 482],MIC,[1]; [6],2 µg/mL
same,MIC,[2]; [7],1 µg/mL
same,MIC,[3]; [8],2 µg/mL
same,MIC,[4]; [9],2 µg/mL
CC(=O)N1CC2CC2(c2ccc(N3C[C@H](CO)OC3=O)cc2)C1 (some centres unmarked) [drawing 484],MIC,[1]; [6],4 µg/mL
same,MIC,[2]; [7],2 µg/mL
same,MIC,[3]; [8],4 µg/mL
same,MIC,[4]; [9],4 µg/mL
c1cc(C23CNCC2C3)ccc1N1CCOCC1 (centres unmarked) [drawing 510],% decrease in immobility time (dose 64 mg/kg),[5]; [10],37.6 ± 14.5%
CC(=O)NC[C@H]1CN(c2ccc(C34CC3CN(C(C)=O)C4)cc2)C(=O)O1 (some centres unmarked) [drawing 533],MIC,"[1]; ATCC29212, Table 9, E. faecalis, read-out: Antimicrobial activity (in vitro MIC) ATCC 29212",2 µg/mL
same,MIC,"[2]; Table 9, S. aureus MRSA, read-out: Antimicrobial activity (in vitro MIC) ATCC 33591",1 µg/mL
same,MIC,"[3]; Table 9, read-out: Antimicrobial activity (in vitro MIC) ATCC 700221",2 µg/mL
same,MIC,"[4]; Table 9, S. aureus MSSA, read-out: Antimicrobial activity (in vitro MIC) ATCC 29213",2 µg/mL
